Test results published in US12396966B2, “Pharmaceutical compositions and oral dosage forms of ketamine derivatives” (XWPHARMA LTD., priority 2021, dated 2025).

Columns and labels:
[1] = humans; cited from earlier work
[2] = Two-stage dissolution of tablets (0.1N HCl 1 hour, then 50 mM acetate buffer pH 4.5); format: physicochemical; details: FIG. 2
Procedure: The two-stage dissolution profiles were obtain as described in Example 5.
A two-stage dissolution apparatus was used to measure the dissolution profile of the tablets.
In the first stage, the tablets were immersed in 0.1N HCl a dissolution medium for 1 hour.
The dissolution medium was then immediately charged to a 50 mM acetate buffer at pH 4.5 immediately following 1 hour sampling via addition of 100 mM acetate buffer with appropriate pH and continued through 18 hours.
Two-stage dissolution profiles for the tablets were obtained using a USP 1 dissolution apparatus. The tablets were first added to 500 mL of a 0.1N hydrochloric acid solution and agitated at 100 RPM for 1 hour at 37° C. Samples (1 mL) were withdrawn at 0, 0.5 and 1 hours. The acid solution was then replaced with 1,000 mL of a 50 mM pH 4.5 acetate buffer solution and the tablets agitated at 100 RPM for up to 24 hours at 37° C. Samples (1 mL) were withdrawn at 1.5, 2, 3, 4, 6, 8, 12, 16, 20, and 24 hours. Solution samples were withdrawn at intervals and the concentration of Compound (39) was measured using high pressure liquid chromatography mass spectroscopy.

CYP2D6 = CYP2D6 (Homo sapiens, UniProt P10635); assay: Preclinical studies: metabolism of compound (39) to release esketamine; format: in vitro ADME
CYP2D6, sequence (P10635 whole entry, species assumed): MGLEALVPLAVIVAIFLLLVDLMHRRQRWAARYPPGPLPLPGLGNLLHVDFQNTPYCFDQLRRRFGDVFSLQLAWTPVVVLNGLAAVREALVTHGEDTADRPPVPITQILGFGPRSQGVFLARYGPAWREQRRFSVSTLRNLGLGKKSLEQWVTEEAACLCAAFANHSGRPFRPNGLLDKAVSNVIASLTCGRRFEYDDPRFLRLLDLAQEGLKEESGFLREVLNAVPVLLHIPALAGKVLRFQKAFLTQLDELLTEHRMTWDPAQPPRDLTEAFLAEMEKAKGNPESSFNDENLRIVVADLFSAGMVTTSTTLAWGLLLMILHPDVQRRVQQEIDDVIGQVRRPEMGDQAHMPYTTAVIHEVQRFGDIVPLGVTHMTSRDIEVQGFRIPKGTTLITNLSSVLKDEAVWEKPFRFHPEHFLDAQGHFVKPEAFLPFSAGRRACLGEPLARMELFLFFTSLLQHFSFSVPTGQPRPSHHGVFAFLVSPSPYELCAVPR

CYP2C19 = CYP2C19 (Homo sapiens, UniProt P33261); assay: as above; format: in vitro ADME
CYP2C19, sequence (P33261 whole entry, species assumed): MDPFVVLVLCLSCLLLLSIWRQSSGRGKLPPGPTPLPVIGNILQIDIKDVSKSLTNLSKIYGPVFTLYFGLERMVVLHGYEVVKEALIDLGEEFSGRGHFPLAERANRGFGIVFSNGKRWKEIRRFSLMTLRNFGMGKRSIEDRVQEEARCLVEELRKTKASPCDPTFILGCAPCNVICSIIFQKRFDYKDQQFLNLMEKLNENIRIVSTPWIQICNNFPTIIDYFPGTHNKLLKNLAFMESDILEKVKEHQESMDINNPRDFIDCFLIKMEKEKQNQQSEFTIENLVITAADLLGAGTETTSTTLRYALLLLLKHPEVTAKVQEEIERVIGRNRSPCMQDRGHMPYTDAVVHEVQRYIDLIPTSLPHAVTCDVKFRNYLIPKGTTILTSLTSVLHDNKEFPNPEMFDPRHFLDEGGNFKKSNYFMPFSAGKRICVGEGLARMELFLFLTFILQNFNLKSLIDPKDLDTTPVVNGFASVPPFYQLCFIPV

CYP3A4 = CYP3A4 (Homo sapiens, UniProt P08684); assay: as above; format: in vitro ADME
CYP3A4, sequence (P08684 whole entry, species assumed): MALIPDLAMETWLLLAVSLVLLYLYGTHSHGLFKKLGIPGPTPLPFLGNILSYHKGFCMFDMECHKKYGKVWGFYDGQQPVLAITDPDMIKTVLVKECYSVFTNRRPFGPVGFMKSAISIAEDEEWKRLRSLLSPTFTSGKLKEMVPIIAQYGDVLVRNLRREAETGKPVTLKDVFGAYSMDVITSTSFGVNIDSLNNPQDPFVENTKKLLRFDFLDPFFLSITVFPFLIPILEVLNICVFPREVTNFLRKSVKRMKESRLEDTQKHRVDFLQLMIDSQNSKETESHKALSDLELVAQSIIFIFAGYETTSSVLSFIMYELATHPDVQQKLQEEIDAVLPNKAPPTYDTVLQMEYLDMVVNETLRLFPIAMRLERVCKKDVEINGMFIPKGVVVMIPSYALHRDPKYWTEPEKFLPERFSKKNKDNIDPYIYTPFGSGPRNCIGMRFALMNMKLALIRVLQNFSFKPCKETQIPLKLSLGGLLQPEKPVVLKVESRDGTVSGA

[3] = Preclinical pharmacokinetic studies; format: in vivo; details: mice
[4] = Preclinical pharmacokinetic studies; format: in vivo; details: rats
[5] = Preclinical pharmacokinetic studies; format: in vivo; details: dogs
[6] = Preclinical pharmacokinetic studies; format: in vivo; details: monkeys
[7] = Preclinical pharmacokinetic studies: dose proportionality and repeated dosing; format: in vivo

Row | Compound | oral bioavailability (% F) [1] | effect of sodium lauryl sulfate on solubility of compound (39) ([2]; acid stage (0.1N HCl), tablets with and without sodium lauryl sulfate) | dissolution rate ([2]; pH 4.5, tablets with and without sodium lauryl sulfate) | metabolism by CYP2D6 to release esketamine (CYP2D6) | metabolism by CYP2C19 to release esketamine (CYP2C19) | metabolism by CYP3A4 to release esketamine (CYP3A4) | absorption and conversion to esketamine [3] | absorption and conversion to esketamine [4] | absorption and conversion to esketamine [5] | absorption and conversion to esketamine [6] | accumulation of compound (39) and its metabolites ([7]; following repeated dosing) | systemic exposure, expressed as AUC: dose proportionality ([7]; for compound (39), esketamine, and noresketamine)
1 | CNC1(c2ccccc2Cl)CCCCC1=O (stereo not drawn) [Ketamine, 2-(2-chlorophenyl)-2-(methylamino)cyclohexan-one] | about 20% |  |  |  |  |  |  |  |  |  |  | 
2 | CC(C)[C@@H](C(=O)OCOC(=O)N(C)[C@]1(c2ccccc2Cl)CCCCC1=O)N(C)C [compound (39), ((((S)-1-(2-chlorophenyl)-2-oxocyclohexyl)(methyl)carbamoyl)oxy)methyl dimethyl-L-valinate] |  | reduces the solubility | approximately independent of the amount of sodium lauryl sulfate | metabolized | metabolized | metabolized | rapid absorption and conversion to esketamine | rapid absorption and conversion to esketamine | rapid absorption and conversion to esketamine | rapid absorption and conversion to esketamine | not observed | less than to greater than dose proportional
